Test results published in patent US20140018384A1, “QUINOLINONE DERIVATIVES FOR USE IN THE TREATMENT OF AN AUTOIMMUNE DISEASE AND/OR AN INFLAMMATORY DISEASE” (PRONOXIS AB, priority 2011, published 2014).
Like-named read-outs stand apart in the source and are kept apart here.

Tested on: PLB-985 cells
Test: ROS production (isoluminol/HRP luminescence) in PLB-985 cells, Biological Example 1
Format: cell-based
Experimental: To cells (HL-60 or PLB-985) in HBSS medium was added compound (25 or 50 μM), isoluminol and Horse Radish Peroxidase, fraction II. Luminescence was measured for 10-30 minutes and the area under the […] curve was divided by that from a control experiment to give the activity expressed as fold change.
Each assay indicated below was performed at a different site, at a different time, by different personnel and/or using different cell lines, concentrations and controls. The cell line, concentration of example compound and control used in respect of each assay were as indicated below. The values obtained from these different setups (each using an otherwise identical assay) are given as Activity A, B, C, D or E in Table 5 below. The values are expressed as fold increase of NADPH activity in the presence of the relevant of compound (as indicated below) compared to the relevant control (as indicated below).
Activity A: HL-60 cells; 50 μM compound vs. blank Activity B: PLB-985 cells; 25 μM compound vs. blank Activity C, D and E: PLB-985 cells; 25 μM compound vs. DMSO

[1] = 25 μM compound vs. DMSO, setup C, read-out: Activity C (fold increase of NADPH activity compared to control)
[2] = 25 μM compound vs. DMSO, setup E, read-out: Activity E (fold increase of NADPH activity compared to control)
[3] = 25 μM compound vs. DMSO, setup D, read-out: Activity D (fold increase of NADPH activity compared to control)
[4] = 25 μM compound vs. blank, read-out: Activity B (fold increase of NADPH activity compared to control)

SMILES	fold induction at 25 µM [1]	fold induction at 25 µM [2]	also measured
O=C(Cn1cc(C(=O)c2cccc(F)c2)c(=O)c2cc3c(cc21)OCO3)Nc1ccc(Cl)cc1 [Example 32, N-(4-Chlorophenyl)-2-[3-(3-fluorobenzoyl)-6,7-methylenedioxy-4-oxo-1-quinolinyl]acetamide]	47.8	–	–
COc1ccc(C(=O)c2cn(CC(=O)Nc3ccc(Cl)cc3)c3cc4c(cc3c2=O)OCO4)cc1 [Example 29, 2-[3-p-Anisoyl-6,7-methylenedioxy-4-oxo-1-quinolinyl]-N-(4-chlorophenyl)acetamide]	55	–	–
O=C(Cn1cc(C(=O)c2ccc3ccccc3c2)c(=O)c2cc3c(cc21)OCO3)Nc1cccnc1 [Example 12, 2-[6,7-Methylenedioxy-3-(2-naphthoyl)-4-oxo-1-quinolinyl]-N-(3-pyridyl)acetamide]	–	3.2	–
COc1ccc(NC(=O)Cn2cc(C(=O)c3ccc(F)cc3)c(=O)c3cc(Cl)ccc32)cc1 [Example 109, N-p-Anisyl-2-[6-chloro-3-(4-fluorobenzoyl)-4-oxo-1-quinolinyl]acetamide]	–	–	fold induction at 25 µM [3]: 2.5
COc1ccc(NC(=O)Cn2cc(C(=O)c3ccccc3)c(=O)c3cc4c(cc32)OCO4)cc1 [Example 87, N-p-Anisyl-2-(3-benzoyl-6,7-methylenedioxy-4-oxo-1-quinolinyl)acetamide]	27.2	–	–
COc1cc(NC(=O)Cn2cc(C(=O)c3ccc(C)c(C)c3)c(=O)c3cc4c(cc32)OCO4)cc(OC)c1 [Example 73, N-(3,5-Dimethoxyphenyl)-2-[3-(3,4-dimethylbenzoyl)-6,7-methylenedioxy-4-oxo-1-quinolinyl]acetamide]	17.1	–	fold induction at 25 µM [4]: 15.2
O=C(Cn1cc(C(=O)c2ccc(F)cc2)c(=O)c2cc3c(cc21)OCO3)Nc1ccc(Cl)cn1 [Example 33, N-(5-Chloro-2-pyridyl)-2-[3-(4-fluorobenzoyl)-6,7-methylenedioxy-4-oxo-1-quinolinyl]acetamide]	45.6	–	–
Cc1ccc(NC(=O)Cn2cc(C(=O)c3ccc4ccccc4c3)c(=O)c3cc4c(cc32)OCO4)cc1 [Example 2, 2-[6,7-Methylenedioxy-3-(2-naphthoyl)-4-oxo-1-quinolinyl]-N-p-tolylacetamide]	–	10	–
O=C(Cn1cc(C(=O)c2ccc3ccccc3c2)c(=O)c2cc3c(cc21)OCO3)Nc1ccc(C(F)(F)F)cc1 [Example 11, 2-[6,7-Methylenedioxy-3-(2-naphthoyl)-4-oxo-1-quinolinyl]-N-(4-trifluoromethylphenyl)acetamide]	–	8.8	–
COc1ccc(NC(=O)Cn2cc(S(=O)(=O)c3ccc(Cl)cc3)c(=O)c3cc4c(cc32)OCO4)cc1 [Example 45, N-p-Anisyl-2-[3-(4-chlorobenzenesulfonyl)-6,7-methylenedioxy-4-oxo-1-quinolinyl]acetamide]	10.7	–	–
COc1ccc(NC(=O)Cn2cc(C(=O)c3ccc(F)cc3)c(=O)c3cc4c(cc32)OCO4)cc1 [Example 54, N-p-Anisyl-2-[(4-fluorobenzoyl)-6,7-methylenedioxy-4-oxo-1-quinolinyl]acetamide]	61.5	–	fold induction at 25 µM [3]: 13.5; fold induction at 25 µM [4]: 74.2
COc1ccc(NC(=O)Cn2cc(C(=O)c3ccc(F)cc3)c(=O)c3cc4c(cc32)OCCO4)cc1 [Example 108, N-p-Anisyl-2-[6,7-ethylenedioxy-3-(4-fluorobenzoyl)-4-oxo-1-quinolinyl]acetamide]	–	–	fold induction at 25 µM [3]: 1.3
CCc1ccc(NC(=O)Cn2cc(S(=O)(=O)c3ccccc3)c(=O)c3cc4c(cc32)OCO4)cc1 [Example 82, 2-(3-Benzenesulfonyl-6,7-methylenedioxy-4-oxo-1-quinolinyl)-N-(4-ethylphenyl)acetamide]	5.9	–	–
Cc1ccc(C(=O)c2cn(CC(=O)Nc3ccc(N(C)C)cc3)c3cc4c(cc3c2=O)OCO4)cc1C [Example 35]	6.3	–	–
COc1cccc(NC(=O)Cn2cc(C(=O)c3ccc4ccccc4c3)c(=O)c3cc4c(cc32)OCO4)c1 [Example 3, N-m-Anisyl-2-[6,7-methylenedioxy-3-(2-naphthoyl)-4-oxo-1-quinolinyl]acetamide]	–	1.8	–
O=C(Cn1cc(C(=O)c2ccc3ccccc3c2)c(=O)c2cc3c(cc21)OCO3)Nc1cccc(OC(F)(F)F)c1 [Example 8, 2-[6,7-Methylenedioxy-3-(2-naphthoyI)-4-oxo-1-quinolinyl]-N-(3-trifluoromethoxyphenyl)acetamide]	–	1.3	–
O=C(Cn1cc(C(=O)c2ccc3ccccc3c2)c(=O)c2cc3c(cc21)OCO3)Nc1ccc(OC(F)(F)F)cc1 [Example 5, 2-[6,7-Methylenedioxy-3-(2-naphthoyl)-4-oxo-1-quinolinyl]-N-(4-trifluoromethoxyphenyl)acetamide]	–	4.3	–

SMILES	fold induction at 25 µM [1]	fold induction at 25 µM [2]	also measured
O=C(Cn1cc(C(=O)c2ccccc2)c(=O)c2cc3c(cc21)OCO3)Nc1ccc(F)cc1 [Example 63, 2-(3-Benzoyl-6,7-methylenedioxy-4-oxo-1-quinolinyl)-N-(4-fluorophenyl)acetamide]	24.3	–	fold induction at 25 µM [4]: 37.3
COc1cc2c(=O)c(C(=O)c3ccc4ccccc4c3)cn(CC(=O)Nc3ccc(Cl)cc3)c2cn1 [Example 24, N-(4-Chlorophenyl)-2-[6-methoxy-3-(2-naphthoyl)-4-oxo-(1,7-naphthyridin-1-yl)]-acetamide]	–	1.7	–
Cc1ccc(C(=O)c2cn(CC(=O)Nc3ccc(F)cc3)c3cc4c(cc3c2=O)OCO4)cc1C [Example 72, 2-[3-(3,4-Dimethylbenzoyl)-6,7-methylenedioxy-4-oxo-1-quinolinyl]-N-(4-fluorophenyl)acetamide]	33.6	–	fold induction at 25 µM [4]: 62.6
O=C(Cn1cc(C(=O)c2ccc3ccccc3c2)c(=O)c2nc(O)ccc21)Nc1ccc(Cl)cc1 [Example 22, N-(4-Chlorophenyl)-2-[6-hydroxy-3-(2-naphthoyl)-4-oxo-(1,5-naphthyridin-1-yl)]-acetamide]	–	20.2	–
COc1cccc2c1c(=O)c(C(=O)c1ccc(F)cc1)cn2CC(=O)Nc1ccc(Cl)cc1 [Example 25]	–	34.6	–
COc1ccc(NC(=O)Cn2cc(C(=O)c3ccc(F)cc3)c(=O)c3cc(OC)ccc32)cc1 [Example 107, N-p-Anisyl-2-[3-(4-fluorobenzoyl)-6-methoxy-4-oxo-1-quinolinyl]acetamide]	–	–	fold induction at 25 µM [3]: 6.6
O=C(Cn1cc(C(=O)c2ccc3ccccc3c2)c(=O)c2cc3c(cc21)OCO3)Nc1ccc(Cl)cn1 [Example 28, N-(5-Chloro-2-pyridyl)-2-[6,7-methylenedioxy-3-(2-naphthoyl)-4-oxo-1-quinolinyl]-acetamide]	16.1	–	–
COc1ccc2c(c1)c(=O)c(C(=O)c1ccc3ccccc3c1)cn2CC(=O)Nc1ccc(Cl)cc1 [Example 16, N-(4-Chlorophenyl)-2-[6-methoxy-3-(2-naphthoyl)-4-oxo-1-quinolinyl]acetamide]	–	5.9	fold induction at 25 µM [3]: 35.4
COc1ccc(NC(=O)Cn2cc(C(=O)c3ccc(F)cc3)c(=O)c3cc4c(cc32)OCO4)cc1OC [Example 31, N-(3,4-Dimethoxyphenyl)-2-[3-(4-fluorobenzoyl)-6,7-methylenedioxy-4-oxo-1-quinolinyl]acetamide]	49.5	–	–
O=C(Cn1cc(S(=O)(=O)c2ccc(F)cc2)c(=O)c2cc3c(cc21)OCO3)Nc1ccc(F)cc1 [Example 83, 2-[3-(4-Fluorobenzenesulfonyl)-6,7-methylenedioxy-4-oxo-1-quinolinyl]-N-(4-fluorophenyl)acetamide]	2	–	–
COc1cc2c(=O)c(C(=O)c3ccc4ccccc4c3)cn(CC(=O)Nc3ccc(Cl)cc3)c2cc1C [Example 19, N-(4-Chlorophenyl)-2-[6-methoxy-7-methyl-3-(2-naphthoyl)-4-oxo-1-quinolinyl]acetamide]	–	–	fold induction at 25 µM [3]: 10.9
COc1ccc(NC(=O)Cn2cc(C(=O)c3ccc(Cl)cc3)c(=O)c3cc4c(cc32)OCO4)cc1 [Example 90, N-p-Anisyl-2-[3-(4-chlorobenzoyl)-6,7-methylenedioxy-4-oxo-1-quinolinyl]acetamide]	37.6	–	fold induction at 25 µM [4]: 40.9
COc1cccc(NC(=O)Cn2cc(C(=O)c3ccccc3)c(=O)c3cc4c(cc32)OCO4)c1 [Example 68, N-(m-Anisyl)-2-(3-benzoyl-6,7-methylenedioxy-4-oxo-1-quinolinyl)acetamide]	6.7	–	fold induction at 25 µM [4]: 10.1
O=C(Cn1cc(C(=O)c2ccccc2)c(=O)c2cc3c(cc21)OCO3)Nc1ccc2c(c1)OCO2 [Example 64, 2-(3-Benzoyl-6,7-methylenedioxy-4-oxo-1-quinolinyl)-N-(3,4-methylenedioxyphenyl)acetamide]	27.9	–	fold induction at 25 µM [4]: 41.1
COc1ccc(NC(=O)Cn2cc(C(=O)c3ccccc3)c(=O)c3cc(OC)c(OC)cc32)cc1 [Example 103, N-p-Anisyl-2-(3-benzoyl-6,7-dimethoxy-4-oxo-1-quinolinyl)acetamide]	–	–	fold induction at 25 µM [3]: 3.7
COc1ccc(NC(=O)Cn2cc(C(=O)c3ccc(C)c(C)c3)c(=O)c3cc4c(cc32)OCO4)cc1 [Example 47, N-p-Anisyl-2-[3-(3,4-dimethylbenzoyl)-6,7-methylenedioxy-4-oxo-1-quinolinyl]acetamide]	58.4	–	fold induction at 25 µM [4]: 144
